In ChEMBL document CHEMBL1201862, “PubChem BioAssay data set” (2004):
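How tested: cells in 96-well plates exposed to compound for 48 hours at five concentrations. The concentration for 50% growth inhibition is given as GI50.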 Activity calls are given as the source filed them. Rule as the data show it: active = GI50 up to about 1.1 µM and inactive = higher.

How the values were obtained:
Test in all cases: NCI-60 cell line screen, 48 h
MDA-MB-231 = tested on: MDA-MB-231
RXF 393 = tested on: RXF 393
HCC 2998 = tested on: HCC 2998
SF-539 = tested on: SF-539
KM12 = tested on: KM12
786-0 = tested on: 786-0
HT-29 = tested on: HT-29
NCI-H23 = tested on: NCI-H23
SK-OV-3 = tested on: SK-OV-3
NCI/ADR-RES = tested on: NCI/ADR-RES
HOP-92 = tested on: HOP-92
U-251 = tested on: U-251
OVCAR-5 = tested on: OVCAR-5
UACC-62 = tested on: UACC-62
HCT-15 = tested on: HCT-15
SF-295 = tested on: SF-295
A549 = tested on: A549
COLO 205 = tested on: COLO 205
SK-MEL-5 = tested on: SK-MEL-5
HCT-116 = tested on: HCT-116
TK-10 = tested on: TK-10
DU-145 = tested on: DU-145
MDA-MB-435 = tested on: MDA-MB-435
OVCAR-8 = tested on: OVCAR-8
MOLT-4 = tested on: MOLT-4
RPMI-8226 = tested on: RPMI-8226
UACC-257 = tested on: UACC-257
CAKI-1 = tested on: CAKI-1
ACHN = tested on: ACHN
SNB-75 = tested on: SNB-75
SF-268 = tested on: SF-268
T47D = tested on: T47D
A498 = tested on: A498
Hs-578T = tested on: Hs-578T
SR = tested on: SR
UO-31 = tested on: UO-31
OVCAR-4 = tested on: OVCAR-4
NCI-H522 = tested on: NCI-H522
NCI-H226 = tested on: NCI-H226
SK-MEL-28 = tested on: SK-MEL-28
CCRF-CEM = tested on: CCRF-CEM
K562 = tested on: K562
MCF7 = tested on: MCF7
SNB-19 = tested on: SNB-19
EKVX = tested on: EKVX
M14 = tested on: M14
SW-620 = tested on: SW-620
HL-60 = tested on: HL-60
IGROV-1 = tested on: IGROV-1
LOX IMVI = tested on: LOX IMVI
SK-MEL-2 = tested on: SK-MEL-2
PC-3 = tested on: PC-3
SN12C = tested on: SN12C
MDA-N = tested on: MDA-N
NCI-H460 = tested on: NCI-H460

## Cc1nnc2c3c(-c4ccccc4)c(-c4ccccc4)oc3nc(N(C)C)n12
MDA-MB-231
  GI50: > 100 µM (inactive)
RXF 393
  GI50: 73.5 µM (inactive)
HCC 2998
  GI50: 29.4 µM (inactive)
SF-539
  GI50: 86.5 µM (inactive)
KM12
  GI50: 26.7 µM (inactive)
786-0
  GI50: 90.4 µM (inactive)
HT-29
  GI50: 33.2 µM (inactive)
NCI-H23
  GI50: 54.5 µM (inactive)
SK-OV-3
  GI50: > 100 µM (inactive)
NCI/ADR-RES
  GI50: > 100 µM (inactive)
HOP-92
  GI50: > 100 µM (inactive)
U-251
  GI50: 51.2 µM (inactive)
OVCAR-5
  GI50: 51.5 µM (inactive)
UACC-62
  GI50: 39.2 µM (inactive)
HCT-15
  GI50: 23.7 µM
SF-295
  GI50: 37.6 µM (inactive)
A549
  GI50: 37.2 µM (inactive)
COLO 205
  GI50: 64.4 µM (inactive)
SK-MEL-5
  GI50: 35.2 µM (inactive)
HCT-116
  GI50: 24.8 µM (inactive)
TK-10
  GI50: > 100 µM (inactive)
DU-145
  GI50: > 100 µM (inactive)
MDA-MB-435
  GI50: 36.5 µM (inactive)
OVCAR-8
  GI50: 78.9 µM (inactive)
MOLT-4
  GI50: 22.9 µM (inactive)
RPMI-8226
  GI50: 20.1 µM (inactive)
UACC-257
  GI50: 36.1 µM (inactive)
CAKI-1
  GI50: > 100 µM (inactive)
ACHN
  GI50: 64.6 µM (inactive)
SNB-75
  GI50: 15.5 µM (inactive)
SF-268
  GI50: 39.5 µM (inactive)
T47D
  GI50: 83.6 µM (inactive)
A498
  GI50: 65.2 µM (inactive)
Hs-578T
  GI50: 21.3 µM (inactive)
SR
  GI50: 16.7 µM (inactive)
UO-31
  GI50: 21.4 µM (inactive)
OVCAR-4
  GI50: > 100 µM (inactive)
NCI-H522
  GI50: 97.9 µM (inactive)
NCI-H226
  GI50: 96.6 µM (inactive)
SK-MEL-28
  GI50: 72.1 µM (inactive)
CCRF-CEM
  GI50: 29.6 µM (inactive)
K562
  GI50: 36.1 µM (inactive)
MCF7
  GI50: 33.3 µM (inactive)
SNB-19
  GI50: > 100 µM (inactive)
EKVX
  GI50: > 100 µM (inactive)
M14
  GI50: 61.2 µM (inactive)
SW-620
  GI50: 44.6 µM (inactive)
HL-60
  GI50: 22.4 µM (inactive)
IGROV-1
  GI50: 85.1 µM (inactive)
LOX IMVI
  GI50: 39.4 µM (inactive)

## O=C(NC(=S)NC(=O)c1cc(O)c(O)c(O)c1)c1cc(O)c(O)c(O)c1
MDA-MB-231
  GI50: 28.8 µM (inactive)
RXF 393
  GI50: 18 µM (inactive)
HCC 2998
  GI50: 31 µM (inactive)
SF-539
  GI50: 30.8 µM (inactive)
KM12
  GI50: 24.5 µM (inactive)
786-0
  GI50: 20 µM (inactive)
HT-29
  GI50: 25.9 µM (inactive)
NCI-H23
  GI50: 23.7 µM (inactive)
SK-OV-3
  GI50: 23.2 µM (inactive)
NCI/ADR-RES
  GI50: 23.4 µM (inactive)
SK-MEL-2
  GI50: 20.1 µM (inactive)
HOP-92
  GI50: 32.7 µM (inactive)
U-251
  GI50: 27 µM (inactive)
OVCAR-5
  GI50: 27 µM (inactive)
UACC-62
  GI50: 23.7 µM (inactive)
HCT-15
  GI50: 23.9 µM
SF-295
  GI50: 17.1 µM (inactive)
A549
  GI50: 37.1 µM (inactive)
COLO 205
  GI50: 22.6 µM (inactive)
SK-MEL-5
  GI50: 24.5 µM (inactive)
HCT-116
  GI50: 20.4 µM (inactive)
TK-10
  GI50: 28.4 µM (inactive)
DU-145
  GI50: 25.5 µM (inactive)
MDA-MB-435
  GI50: 7.93 µM (inactive)
OVCAR-8
  GI50: 20.7 µM (inactive)
MOLT-4
  GI50: > 10 µM (inactive)
RPMI-8226
  GI50: 48.3 µM (inactive)
UACC-257
  GI50: 22.3 µM (inactive)
CAKI-1
  GI50: 21.1 µM (inactive)
ACHN
  GI50: 23 µM (inactive)
SF-268
  GI50: 31.1 µM (inactive)
PC-3
  GI50: 19.7 µM (inactive)
A498
  GI50: > 100 µM (inactive)
SR
  GI50: > 100 µM (inactive)
UO-31
  GI50: 22.4 µM (inactive)
OVCAR-4
  GI50: 20.4 µM (inactive)
SN12C
  GI50: 24.7 µM (inactive)
NCI-H522
  GI50: 22.7 µM (inactive)
MDA-N
  GI50: 2.65 µM (inactive)
NCI-H226
  GI50: 39.1 µM (inactive)
SK-MEL-28
  GI50: 27.8 µM (inactive)
CCRF-CEM
  GI50: 4.41 µM (inactive)
K562
  GI50: 8.34 µM (inactive)
MCF7
  GI50: 38.7 µM (inactive)
SNB-19
  GI50: 24.2 µM (inactive)
M14
  GI50: 32.1 µM (inactive)
SW-620
  GI50: 27.7 µM (inactive)
NCI-H460
  GI50: 26.5 µM (inactive)
LOX IMVI
  GI50: 12.8 µM (inactive)
